# Measured values published in patent US10000476B2, “Pyridone derivative, pharmaceutical containing the same and methods of use thereof” (KAKEN PHARMACEUTICAL CO., LTD., priority 2011, dated 2018).
# Legend:
# [1] = system: auricular oedema induced by TPA in BALB/c mice; test: Inhibition test of auricular oedema induced by single application of TPA in mouse; format: in vivo; conditions: 1 w/v % solution applied topically to ear 1 hour before TPA, auricle thickness 6 hours after TPA, read-out: Auricular oedema inhibition rate (%)
# Method: Inhibition Test of Auricular Oedema Induced by Single Application of TPA (12-O-tetradecanoylphorbol-13-acetate) in Mouse (In Vivo Efficacy Test Based on TNF-α-Related Cutaneous Inflammation)
# Auricular oedema was induced by applying 54 μmol/L TPA-acetone solution on both the inner and outer sides of the left ear of BALB/c mice (application volume of 54 μmol/L TPA-acetone solution is 10 μL for each side of the left ear (i.e. 1.08 nmol TPA/auricle)). For a non-induced group, acetone was similarly applied instead of the 54 μmol/L TPA-acetone solution. The test substance was dissolved and prepared in a 1 w/v % solution of acetone containing 10 vol % DMSO (topical administration vehicle), then the test solution was applied onto both the inner and outer sides of the left ear of the mice (application volume of this test solution is 10 μL for each side of the left ear) 1 hour before the TPA application. For a control group, the topical administration vehicle was similarly applied instead of the test substance solution. For an etanercept group, 0.2 mL of a 5 mg/mL etanercept solution was intravenously administered (1 mg/mouse) the day before TPA application and 1.5 hours before TPA application. For a human IgG (hIgG) group (etanercept control group), 0.2 mL of a 5 mg/mL hIgG solution was intravenously administered (1 mg/mouse). Auricle thickness was measured under ether anesthesia the day before TPA application and 6 hours after TPA application for evaluation of the auricular oedema inhibition effect of the test substance based on the increase in auricle thickness as an index.
# The auricular oedema inhibition rate (%) of the test substance was calculated based on the following formula using (A) the average value of the increase in auricular thickness of the group administered with the test substance, (B) the average value of the increase in auricular thickness of the non-induced group, and (C) the average value of the increase in auricular thickness of the control group. […]
# [2] = target: TACE (Homo sapiens (Human), UniProt P78536); test: TACE inhibition test (in vitro); format: biochemical; conditions: fluorescent synthetic substrate, 37° C., 1.5 hours
# Method in brief: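 Recombinant enzyme (cDNA from THP-1 cells, expressed in mammalian or insect cells) with quenched substrate Nma-Leu-Ala-Gln-Ala-Val-Arg-Ser-Ser-Lys(Dnp)-D-Arg-NH2. Incubated 1.5 h at 37 °C; fluorescence read at ex 355/em 460 nm; IC50 from inhibition rate.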
# Sequence of TACE (P78536 215-824): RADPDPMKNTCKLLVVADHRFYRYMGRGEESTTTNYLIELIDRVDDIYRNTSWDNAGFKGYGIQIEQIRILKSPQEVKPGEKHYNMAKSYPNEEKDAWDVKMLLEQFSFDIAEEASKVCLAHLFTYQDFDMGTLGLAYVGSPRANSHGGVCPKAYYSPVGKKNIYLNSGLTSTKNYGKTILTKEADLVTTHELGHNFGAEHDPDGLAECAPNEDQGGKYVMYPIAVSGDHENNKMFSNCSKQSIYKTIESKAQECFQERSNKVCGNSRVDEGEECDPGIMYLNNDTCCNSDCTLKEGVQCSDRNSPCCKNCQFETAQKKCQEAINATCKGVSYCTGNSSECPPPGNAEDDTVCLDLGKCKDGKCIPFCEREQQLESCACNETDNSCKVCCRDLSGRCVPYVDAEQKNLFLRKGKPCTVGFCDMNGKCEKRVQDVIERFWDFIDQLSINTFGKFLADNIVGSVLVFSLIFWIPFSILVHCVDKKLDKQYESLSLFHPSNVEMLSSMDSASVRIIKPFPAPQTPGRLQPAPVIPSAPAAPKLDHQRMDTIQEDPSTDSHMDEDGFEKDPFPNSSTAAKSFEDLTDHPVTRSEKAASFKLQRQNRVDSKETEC
IC50 [2],Compound,inhibition in vivo at 10000 µg/mL [1]
< 100 nM,Cc1cccn(CC2(c3ccc(Oc4ccc(F)cc4)cc3)NC(=O)NC2=O)c1=O (stereo not drawn) [Compound I-85],78%
< 100 nM,Cc1cccn(CC2(c3ccc(Sc4ccccc4)cc3)NC(=O)NC2=O)c1=O (stereo not drawn) [Compound I-102],50%
< 100 nM,Cc1cc(C2(Cn3cccc(C)c3=O)NC(=O)NC2=O)cc(C)c1OC1CCCC1 (stereo not drawn) [Compound I-129],71%

# More lines, now with the values behind:
Compound,IC50 [2],inhibition in vivo at 10000 µg/mL [1]
"Cc1cccn(CC2(c3ccc(OC4C=CCCC4)cc3)NC(=O)NC2=O)c1=O (stereo not drawn) [Compound I-36, 5-[4-(cyclohex-2-en-1-yloxy)phenyl]-5-[(3-methyl-2-oxopyridin-1(2H)-yl)methyl]imidazolidine-2,4-dione]",< 100 nM,58%
"Cc1cccn(CC2(c3ccc(OC4CCCCC4)cc3)NC(=O)NC2=O)c1=O (stereo not drawn) [Compound I-37, 5-[4-(cyclohexyloxy)phenyl]-5-[(3-methyl-2-oxopyridin-1(2H)-yl)methyl]imidazolidine-2,4-dione]",< 100 nM,78%
Cc1cc(C2(Cn3cccc(C)c3=O)NC(=O)NC2=O)ccc1OC1C=CCCC1 (stereo not drawn) [Compound I-38],< 100 nM,41%
Cc1cccn(CC2(c3ccc(Oc4cccc(F)c4)cc3)NC(=O)NC2=O)c1=O (stereo not drawn) [Compound I-84],< 100 nM,53%
Cc1cccn(CC2(c3ccc(Oc4ccc(Cl)cc4)cc3)NC(=O)NC2=O)c1=O (stereo not drawn) [Compound I-130],,44%
